US8486951B2 (Deciphera Pharmaceuticals, LLC, priority 2008, dated 2013)

Tests used:
[1] = target: T1, PDGFRα kinase (Homo sapiens, UniProt P16234); assay: PDGFRα Kinase Assay; format: biochemical; conditions: read-out: PDGFRa Enzyme Assay
T1 construct: purchased Invitrogen
Experimental: (§1) Activity of PDGFRα kinase was determined by following the production of ADP from the kinase reaction through coupling with the pyruvate kinase/lactate dehydrogenase system. In this assay, the oxidation of NADH (thus the decrease at A340 nm) was continuously monitored spectrophometrically. The reaction mixture (100 μl) contained PDGFRα (Invitrogen, 10 nM), polyE4Y (1 mg/ml), MgCl2 (10 mM), pyruvate kinase (4 units), lactate dehydrogenase (0.7 units), phosphoenol pyruvate (1 mM) and NADH (0.28 mM) and ATP (500 μM) in a 90 mM Tris buffer containing 0.2% octyl-glucoside and 1% DMSO, pH 7.5. The inhibition reaction was started by mixing serial diluted test compound with the above reaction mixture. The absorption at 340 nm was monitored continuously for 4 hours at 30° C. on a Polarstar Optima or Synergy 2 plate reader. The reaction rate was calculated using the 2 to 3 h time frame. Percent inhibition was obtained by comparison of reaction rate with that of a control (i.e. with no test compound). IC50 values were calculated from a series of percent inhibition values determined at a range of inhibitor concentrations using software routines as implemented in the GraphPad Prism software package.

[2] = target: T2, c-KIT kinase (Seq. ID no. 1) (Homo sapiens, UniProt P10721); assay: c-KIT kinase Assay (ADP production, pyruvate kinase/lactate dehydrogenase coupled); format: biochemical; conditions: read-out: cKIT Enzyme Assay
T2 construct: purchased ProQinase
Experimental: In this assay, the oxidation of NADH (thus the decrease at A340 nm) was continuously monitored spectrophometrically. […] The absorption at 340 nm was monitored continuously for 0.5 hours at 30° C. on Polarstar Optima plate reader (BMG). The reaction rate was calculated using the 0 to 0.5 h time frame. Percent inhibition was obtained by comparison of reaction rate with that of a control (i.e. with no test compound). IC50 values were calculated from a series of percent inhibition values determined at a range of inhibitor concentrations using software routines as implemented in the GraphPad Prism software package.

[3] = target: T3, c-MET kinase (Seq. ID no. 2) (Homo sapiens, UniProt P08581); assay: c-MET Kinase Assay (ADP production, pyruvate kinase/lactate dehydrogenase coupled); format: biochemical; conditions: read-out: cMET Enzyme Assay
T3 construct: purchased Invitrogen PV3143
Experimental: In this assay, the oxidation of NADH (thus the decrease at A340 nm) was continuously monitored spectrophometrically. […] Test compounds were incubated with C-Met (Seq. ID no. 2) and other reaction reagents at 22° C. for 0.5 h before ATP (100 μM) was added to start the reaction. The absorption at 340 nm was monitored continuously for 2 hours at 30° C. on Polarstar Optima plate reader (BMG). The reaction rate was calculated using the 1.0 to 2.0 h time frame. Percent inhibition was obtained by comparison of reaction rate with that of a control (i.e. with no test compound). IC50 values were calculated from a series of percent inhibition values determined at a range of inhibitor concentrations using software routines as implemented in the GraphPad Prism software package.

[4] = target: T4, PDGFRβ (Homo sapiens, UniProt P09619); assay: PDGFRβ Kinase Assay; format: biochemical; conditions: read-out: PDGFRb Enzyme Assay
T4 construct: purchased Invitrogen

[5] = target: T5, FMS kinase (Homo sapiens, UniProt P07333); assay: FMS Kinase Assay; format: biochemical; conditions: read-out: FMS Enzyme Assay
T5 construct: purchased Invitrogen or Millipore
Experimental: as §1, with “In” for “Activity of PDGFRα kinase was determined by following the production of ADP from the kinase reaction through coupling with the pyruvate kinase/lactate dehydrogenase system. In”, “FMS (purchased from Invitrogen or Millipore, 6” for “PDGFRα (Invitrogen, 10”

[6] = target: KDR kinase (Seq ID No. 3) (Homo sapiens, UniProt P35968, DEL940-989/E990V); assay: KDR Kinase Assay (assays K1, K2, K3); format: biochemical; conditions: assay variant K1, K2 or K3 not stated; read-out: KDR Enzyme Assay
[7] = tested on: EBC-1 cells; assay: EBC-1 Cell Proliferation Assay (resazurin); format: cell-based; conditions: Homo sapiens, 67 h + 5 h resazurin, read-out: EBC1 Cell Proliferation
Experimental: EBC-1 cells (catalog #JCRB0820) were obtained from the Japan Health Science Research Resources Bank, Osaka, Japan. Briefly, cells were grown in DMEM supplemented with 10% characterized fetal bovine serum (Invitrogen, Carlsbad, Calif.) at 37 degrees Celsius, 5% CO2, 95% humidity. Cells were allowed to expand until reaching 70-95% confluency at which point they were subcultured or harvested for assay use.
EBC-1 Cell Proliferation Assay
A serial dilution of test compound was dispensed into a 96-well black clear bottom plate (Corning, Corning, N.Y.). For each cell line, five thousand cells were added per well in 200 μL complete growth medium. Plates were incubated for 67 hours at 37 degrees Celsius, 5% CO2, 95% humidity. […] Data was analyzed using Prism software (Graphpad, San Diego, Calif.) to calculate IC50 values.

T5 sequence (P07333 20-972): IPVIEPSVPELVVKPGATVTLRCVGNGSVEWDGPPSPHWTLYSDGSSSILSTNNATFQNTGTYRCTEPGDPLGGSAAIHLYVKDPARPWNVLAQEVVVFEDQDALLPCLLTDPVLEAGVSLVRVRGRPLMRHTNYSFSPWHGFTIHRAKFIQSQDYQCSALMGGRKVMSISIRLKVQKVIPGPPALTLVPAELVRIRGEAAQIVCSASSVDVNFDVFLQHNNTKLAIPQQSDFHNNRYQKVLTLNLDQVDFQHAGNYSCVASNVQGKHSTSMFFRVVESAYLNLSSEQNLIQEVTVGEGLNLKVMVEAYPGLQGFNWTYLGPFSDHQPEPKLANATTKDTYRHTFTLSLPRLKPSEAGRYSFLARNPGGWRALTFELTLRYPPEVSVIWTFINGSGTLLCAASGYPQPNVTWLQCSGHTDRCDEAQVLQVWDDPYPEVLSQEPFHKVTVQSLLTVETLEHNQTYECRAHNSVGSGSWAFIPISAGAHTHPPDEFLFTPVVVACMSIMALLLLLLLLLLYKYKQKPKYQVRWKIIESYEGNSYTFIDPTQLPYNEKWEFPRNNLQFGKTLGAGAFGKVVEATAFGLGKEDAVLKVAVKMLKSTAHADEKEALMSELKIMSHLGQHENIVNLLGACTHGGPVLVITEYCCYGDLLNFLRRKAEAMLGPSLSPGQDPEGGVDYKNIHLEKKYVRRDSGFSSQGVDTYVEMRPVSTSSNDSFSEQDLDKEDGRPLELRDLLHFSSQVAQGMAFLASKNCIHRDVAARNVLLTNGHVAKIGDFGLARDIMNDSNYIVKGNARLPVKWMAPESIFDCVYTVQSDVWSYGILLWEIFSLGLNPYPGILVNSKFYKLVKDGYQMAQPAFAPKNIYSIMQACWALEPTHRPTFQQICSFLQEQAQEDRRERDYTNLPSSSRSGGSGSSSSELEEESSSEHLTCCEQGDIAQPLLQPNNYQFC
KDR kinase (Seq ID No. 3), sequence (P35968 with tags, fused parts or gaps DEL940-989/E990V): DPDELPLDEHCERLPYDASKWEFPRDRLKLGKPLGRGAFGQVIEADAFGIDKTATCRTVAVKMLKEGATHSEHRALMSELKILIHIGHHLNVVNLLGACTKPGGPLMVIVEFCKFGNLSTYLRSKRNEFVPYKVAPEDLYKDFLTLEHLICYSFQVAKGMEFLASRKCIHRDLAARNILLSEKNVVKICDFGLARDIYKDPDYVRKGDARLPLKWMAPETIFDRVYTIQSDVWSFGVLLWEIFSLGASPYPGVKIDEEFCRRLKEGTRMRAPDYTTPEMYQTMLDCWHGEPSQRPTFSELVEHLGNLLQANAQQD
T3 sequence (P08581 with tags, fused parts or gaps): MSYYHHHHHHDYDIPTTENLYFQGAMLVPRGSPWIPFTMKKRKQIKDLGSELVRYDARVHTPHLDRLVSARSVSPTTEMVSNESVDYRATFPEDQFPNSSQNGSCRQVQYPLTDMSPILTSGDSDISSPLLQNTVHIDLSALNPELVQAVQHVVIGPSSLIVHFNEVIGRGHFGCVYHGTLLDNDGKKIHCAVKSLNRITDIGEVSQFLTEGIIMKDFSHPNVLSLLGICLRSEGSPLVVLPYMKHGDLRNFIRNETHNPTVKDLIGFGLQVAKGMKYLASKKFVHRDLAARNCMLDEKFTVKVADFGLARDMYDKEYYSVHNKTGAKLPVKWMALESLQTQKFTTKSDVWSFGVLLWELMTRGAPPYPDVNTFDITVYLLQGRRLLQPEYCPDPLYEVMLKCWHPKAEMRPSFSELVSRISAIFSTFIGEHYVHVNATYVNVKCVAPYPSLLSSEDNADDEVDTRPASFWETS
T2 sequence (P10721 with tags, fused parts or gaps): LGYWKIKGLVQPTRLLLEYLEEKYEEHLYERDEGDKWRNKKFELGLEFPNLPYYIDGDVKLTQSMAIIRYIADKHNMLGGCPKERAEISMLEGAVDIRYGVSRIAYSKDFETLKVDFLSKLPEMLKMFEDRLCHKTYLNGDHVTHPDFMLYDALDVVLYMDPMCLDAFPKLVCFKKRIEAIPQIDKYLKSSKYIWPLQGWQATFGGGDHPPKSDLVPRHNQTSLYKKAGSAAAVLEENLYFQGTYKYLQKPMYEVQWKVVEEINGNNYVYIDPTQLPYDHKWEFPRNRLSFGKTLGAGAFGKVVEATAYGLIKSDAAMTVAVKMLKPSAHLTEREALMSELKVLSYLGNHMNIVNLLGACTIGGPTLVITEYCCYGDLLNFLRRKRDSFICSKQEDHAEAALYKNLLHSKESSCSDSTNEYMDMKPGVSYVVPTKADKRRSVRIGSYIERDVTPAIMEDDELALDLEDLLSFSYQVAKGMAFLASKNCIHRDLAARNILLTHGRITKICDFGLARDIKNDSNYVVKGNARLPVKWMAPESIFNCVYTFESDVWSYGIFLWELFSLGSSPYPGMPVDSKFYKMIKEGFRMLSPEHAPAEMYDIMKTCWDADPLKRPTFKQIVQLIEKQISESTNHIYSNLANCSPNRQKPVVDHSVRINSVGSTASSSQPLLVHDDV
T4 sequence (P09619 33-1106): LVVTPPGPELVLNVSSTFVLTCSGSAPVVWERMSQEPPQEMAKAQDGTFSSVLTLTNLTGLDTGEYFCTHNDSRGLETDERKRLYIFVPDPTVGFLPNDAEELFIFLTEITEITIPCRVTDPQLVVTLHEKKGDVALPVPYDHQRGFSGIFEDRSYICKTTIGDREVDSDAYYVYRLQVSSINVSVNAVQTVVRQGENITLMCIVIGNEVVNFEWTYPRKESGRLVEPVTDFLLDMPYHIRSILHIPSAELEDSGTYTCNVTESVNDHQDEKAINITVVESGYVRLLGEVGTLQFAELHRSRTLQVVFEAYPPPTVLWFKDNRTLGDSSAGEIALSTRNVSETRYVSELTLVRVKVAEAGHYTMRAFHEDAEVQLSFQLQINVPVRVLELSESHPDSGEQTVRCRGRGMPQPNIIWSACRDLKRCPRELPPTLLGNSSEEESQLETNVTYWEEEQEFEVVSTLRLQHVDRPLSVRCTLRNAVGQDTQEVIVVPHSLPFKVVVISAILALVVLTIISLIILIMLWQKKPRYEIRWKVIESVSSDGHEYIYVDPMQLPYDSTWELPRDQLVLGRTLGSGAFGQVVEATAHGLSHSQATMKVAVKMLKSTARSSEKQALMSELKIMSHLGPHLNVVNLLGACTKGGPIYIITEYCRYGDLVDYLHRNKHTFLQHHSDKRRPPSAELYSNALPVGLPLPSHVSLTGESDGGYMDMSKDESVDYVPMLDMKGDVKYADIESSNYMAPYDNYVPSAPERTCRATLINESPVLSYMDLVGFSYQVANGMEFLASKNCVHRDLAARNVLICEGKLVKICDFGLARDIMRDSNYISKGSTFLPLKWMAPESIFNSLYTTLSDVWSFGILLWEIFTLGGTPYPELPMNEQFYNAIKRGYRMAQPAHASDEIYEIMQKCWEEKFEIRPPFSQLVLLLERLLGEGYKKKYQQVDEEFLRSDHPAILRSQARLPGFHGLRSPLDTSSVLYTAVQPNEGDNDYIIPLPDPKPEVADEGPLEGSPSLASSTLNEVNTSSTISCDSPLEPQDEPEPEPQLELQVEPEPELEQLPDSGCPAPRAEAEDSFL
T1 sequence (P16234 24-1089): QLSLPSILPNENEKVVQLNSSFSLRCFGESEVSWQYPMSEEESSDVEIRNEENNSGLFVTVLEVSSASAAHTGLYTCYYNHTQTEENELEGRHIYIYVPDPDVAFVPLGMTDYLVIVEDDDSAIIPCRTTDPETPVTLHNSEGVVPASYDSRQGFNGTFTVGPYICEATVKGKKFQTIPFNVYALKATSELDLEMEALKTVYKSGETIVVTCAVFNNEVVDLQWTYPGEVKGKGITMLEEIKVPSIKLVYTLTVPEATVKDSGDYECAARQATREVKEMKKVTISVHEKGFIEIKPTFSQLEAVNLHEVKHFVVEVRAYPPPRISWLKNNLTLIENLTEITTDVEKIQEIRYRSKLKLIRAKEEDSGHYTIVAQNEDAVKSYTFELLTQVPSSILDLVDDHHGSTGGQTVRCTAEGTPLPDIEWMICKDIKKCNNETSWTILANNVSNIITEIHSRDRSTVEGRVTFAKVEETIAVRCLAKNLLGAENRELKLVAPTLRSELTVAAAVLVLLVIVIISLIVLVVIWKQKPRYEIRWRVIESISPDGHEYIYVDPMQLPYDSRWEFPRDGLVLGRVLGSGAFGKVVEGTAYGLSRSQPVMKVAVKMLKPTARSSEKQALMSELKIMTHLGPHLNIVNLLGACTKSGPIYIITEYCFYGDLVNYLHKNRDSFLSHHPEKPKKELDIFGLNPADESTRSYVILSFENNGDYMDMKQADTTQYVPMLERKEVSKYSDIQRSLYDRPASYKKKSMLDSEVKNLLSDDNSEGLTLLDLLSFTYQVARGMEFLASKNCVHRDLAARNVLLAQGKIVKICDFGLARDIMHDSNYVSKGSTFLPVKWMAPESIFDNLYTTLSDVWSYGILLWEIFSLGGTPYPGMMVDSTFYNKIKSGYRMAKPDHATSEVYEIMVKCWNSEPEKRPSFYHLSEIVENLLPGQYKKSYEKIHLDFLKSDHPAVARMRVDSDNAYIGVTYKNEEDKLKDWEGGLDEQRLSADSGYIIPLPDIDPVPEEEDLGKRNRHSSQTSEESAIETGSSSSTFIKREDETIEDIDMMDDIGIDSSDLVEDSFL

Row | Compound | IC50 [1] [nM] | IC50 [2] [nM] | IC50 [3] [nM] | IC50 [4] [nM] | IC50 [5] [nM] | IC50 [6] [nM] | IC50 [7] [nM]
1 | 1-(2,3-difluoro-4-(2-(1H-pyrazol-4-yl)pyridin-4-yloxy)phenyl)-3-(2-(4-fluorophenyl)acetyl)urea [Example 43] | < 200 | < 2000 | < 2000 | < 2000 | < 200 | < 10000 | –
2 | Cn1cc(-c2cc(Oc3ccc(NC(=O)C4(C(=O)NCc5ccccc5)CC4)cc3F)ccn2)cn1 [Example 4, N-benzyl-N′-(3-fluoro-4-(2-(1-methyl-1H-pyrazol-4-yl)pyridin-4-yloxy)phenyl)cyclopropane-1,1-dicarboxamide] | < 10000 | < 2000 | – | < 10000 | < 200 | < 2000 | –
3 | C[C@H](NC(=O)C1(C(=O)Nc2ccc(Oc3ccnc(-c4cnn(C)c4)c3)c(F)c2)CC1)c1ccccc1 [Example 16, N-(3-fluoro-4-(2-(1-methyl-1H-pyrazol-4-yl)pyridin-4-yloxy)phenyl)-N′-((S)-1-phenylethyl)cyclopropane-1,1-dicarboxamide] | < 2000 | < 200 | – | < 10000 | < 200 | < 10000 | < 10000
4 | C[C@@H](NC(=O)C1(C(=O)Nc2ccc(Oc3ccnc(-c4cnn(C)c4)c3)c(F)c2)CC1)c1ccccc1 [Example 17, N-(3-fluoro-4-(2-(1-methyl-1H-pyrazol-4-yl)pyridin-4-yloxy)phenyl)-N′-((R)-1-phenylethyl)cyclopropane-1,1-dicarboxamide] | < 10000 | < 2000 | – | < 10000 | < 200 | < 10000 | –
5 | CCn1cc(-c2cc(Oc3ccc(NC(=O)C4(C(=O)Nc5ccc(F)cc5)CC4)cc3F)ccn2)cn1 [Example 19, N-(4-(2-(1-ethyl-1H-pyrazol-4-yl)pyridin-4-yloxy)-3-fluorophenyl)-N′-(4-fluorophenyl)cyclopropane-1,1-dicarboxamide] | – | – | – | – | – | – | < 2000
6 | CCCn1cc(-c2cc(Oc3ccc(NC(=O)C4(C(=O)Nc5ccc(F)cc5)CC4)cc3F)ccn2)cn1 [Example 20, N-(3-fluoro-4-(2-(1-propyl-1H-pyrazol-4-yl)pyridin-4-yloxy)phenyl)-N′-(4-fluorophenyl)cyclopropane-1,1-dicarboxamide] | – | – | – | – | – | – | < 2000
7 | Cn1cc(-c2cc(Oc3cc(F)c(NC(=O)NC(=O)Cc4ccc(F)cc4)cc3Cl)ccn2)cn1 [Example 46, 1-(5-chloro-2-fluoro-4-(2-(1-methyl-1H-pyrazol-4-yl)pyridin-4-yloxy)phenyl)-3-(2-(4-fluorophenyl)acetyl)urea] | < 200 | < 200 | < 200 | < 200 | – | < 2000 | < 200
8 | Cn1cc(-c2cc(Oc3c(F)cc(NC(=O)NC(=O)Cc4ccc(F)cc4)cc3F)ccn2)cn1 [Example 48, 1-(3,5-difluoro-4-(2-(1-methyl-1H-pyrazol-4-yl)pyridin-4-yloxy)phenyl)-3-(2-(4-fluorophenyl)acetyl)urea] | < 10000 | < 2000 | < 10000 | < 10000 | < 10000 | < 2000 | –

The next lines start with results.

Row | IC50 [1] [nM] | IC50 [2] [nM] | IC50 [3] [nM] | IC50 [4] [nM] | IC50 [5] [nM] | IC50 [6] [nM] | Compound | IC50 [7] [nM]
9 | < 2000 | < 10000 | – | < 10000 | < 2000 | < 200 | Cn1cc(-c2cc(Oc3ccc(NC(=O)C4(C(=O)Nc5cccc(C(F)(F)F)c5)CC4)cc3F)ccn2)cn1 [Example 6, N-(3-fluoro-4-(2-(1-methyl-1H-pyrazol-4-yl)pyridin-4-yloxy)phenyl)-N′-(3-(trifluoromethyl)phenyl)cyclopropane-1,1-dicarboxamide] | < 10000
10 | < 2000 | < 2000 | < 2000 | < 10000 | – | < 2000 | O=C(Nc1ccc(F)cc1)C1(C(=O)Nc2ccc(Oc3ccnc(-c4cnn(CCO)c4)c3)c(F)c2)CC1 [Example 21, N-(3-fluoro-4-(2-(1-(2-hydroxyethyl)-1H-pyrazol-4-yl)pyridin-4-yloxy)phenyl)-N′-(4-fluorophenyl)cyclopropane-1,1-dicarboxamide] | < 2000
11 | < 2000 | < 200 | < 200 | < 10000 | – | – | Cn1cc(-c2cc(Oc3ccc(NC(=O)C4(C(=O)Nc5ccc(F)cc5)CC4)cc3Cl)ccn2)cn1 [Example 30, N-(3-chloro-4-(2-(1-methyl-1H-pyrazol-4-yl)pyridin-4-yloxy)phenyl)-N′-(4-fluorophenyl)cyclopropane-1,1-dicarboxamide] | < 2000
12 | – | – | < 200 | – | – | – | O=C(Nc1ccc(F)cc1)C1(C(=O)Nc2ccc(Oc3ccnc(-c4cn[nH]c4)c3)c(F)c2)CC1 [Example 31, N-(4-(2-(1H-pyrazol-4-yl)pyridin-4-yloxy)-3-fluorophenyl)-N′-(4-fluorophenyl)cyclopropane-1,1-dicarboxamide] | < 2000
13 | < 200 | < 200 | < 200 | < 10000 | – | < 2000 | Cn1cc(-c2cc(Oc3cc(F)c(NC(=O)C4(C(=O)Nc5ccc(F)cc5)CC4)cc3Cl)ccn2)cn1 [Example 47, N-(5-chloro-2-fluoro-4-(2-(1-methyl-1H-pyrazol-4-yl)pyridin-4-yloxy)phenyl)-N′-(4-fluorophenyl)cyclopropane-1,1-dicarboxamide] | < 200
14 | < 2000 | < 200 | < 200 | < 10000 | – | < 200 | Cc1c(-c2cc(Oc3cc(F)c(NC(=O)C4(C(=O)Nc5ccc(F)cc5)CC4)cc3F)ccn2)cnn1C [Example 50, N-(4-(2-(1,5-dimethyl-1H-pyrazol-4-yl)pyridin-4-yloxy)-2,5-difluorophenyl)-N′-(4-fluorophenyl)cyclopropane-1,1-dicarboxamide] | < 200
15 | < 10000 | < 10000 | < 10000 | < 10000 | < 10000 | < 10000 | O=C(Nc1ccc(F)cc1)C1(C(=O)Nc2cc(Oc3nccc(-c4cn[nH]c4)n3)ccc2F)CC1 [Example 55, N-(5-(4-(1H-pyrazol-4-yl)pyrimidin-2-yloxy)-2-fluorophenyl)-N′-(4-fluorophenyl)cyclopropane-1,1-dicarboxamide] | –
16 | – | – | < 200 | – | < 200 | < 10000 | Cc1cc(-c2cc(Oc3ccc(NC(=O)C4(C(=O)Nc5ccc(F)cc5)CC4)c(F)c3)ccn2)on1 [Example 59, N-(2-fluoro-4-(2-(3-methylisoxazol-5-yl)pyridin-4-yloxy)phenyl)-N′-(4-fluorophenyl)cyclopropane-1,1-dicarboxamide] | –
